Data taken from article PMC3987113 (Toxicology and applied pharmacology, 2009).
Entries after “also recorded” stand apart in the source; their conditions may differ.

Experiments:
[1] = 300 μg/kg PCB126; ref Kopec et al. 2008; cited from earlier work
[2] = liver, PCB126; ref Kopec et al. 2008; cited from earlier work
[3] = test system: liver of immature, ovariectomized C57BL/6 mice; details: ref Boverhof et al. 2005; Kopec et al. 2008; cited from earlier work
[4] = Body and liver weights, time course study; type: in vivo, C57BL/6 mice; details: 300 mg/kg PCB153 or 30 μg/kg TCDD, mean ± SD, n=5; for Body weight gain: terminal body weight divided by body weight prior to dosing
[5] = Hepatic tissue level quantification by HRGC/HRMS; type: in vivo, C57BL/6 mice; details: liver, 168 h vs 24 h; single gavage 300 mg/kg PCB153 or 30 μg/kg TCDD
[6] = test system: liver of immature, ovariectomized C57BL/6 mice; test: Liver histopathology; type: in vivo; details: 300 mg/kg PCB153 or 30 μg/kg TCDD
hepatic gene expression [7] = test: QRT-PCR verification of hepatic gene expression; type: in vivo, C57BL/6 mice
hepatic gene expression [8] = test: Hepatic gene expression, Agilent 4 x 44K microarrays; type: in vivo, C57BL/6 mice; details: hepatic mRNA, 30 μg/kg TCDD; maximum fold change, |fold change|≥1.5, P1(t)≥0.90
hepatic gene expression [9] = details: hepatic mRNA, cDNA microarray, 30 μg/kg TCDD; maximum fold change, |fold change|≥1.5, P1(t)≥0.90; ref Boverhof et al. 2005; cited from earlier work

## Clc1ccc(-c2cc(Cl)c(Cl)c(Cl)c2)cc1Cl [PCB126, 3,3′,4,4′,5-pentachlorobiphenyl]
[1]
  Effect on relative liver weight (RLW): also increased RLW at later time points
[2]
  Hepatic level over time: continued to increase throughout the study, reaching the highest concentration at 7 days
[3]
  Hepatocyte cell size and number: not affected

## Clc1cc2c(cc1Cl)Oc1cc(Cl)c(Cl)cc1O2 [TCDD, 2,3,7,8-tetrachlorodibenzo-p-dioxin, reference compound]
[4]; 4 h
  Liver weight: 0.733 ± 0.044 g
  Relative liver weight: 0.054 ± 0.003
  Body weight gain: 1.0 ± 0.0
[4]; 4 h after single gavage
  Terminal body weight: 13.6 ± 0.8 g
[4]; 12 h
  Liver weight: 0.724 ± 0.025 g
  Relative liver weight: 0.056 ± 0.001
  Body weight gain: 1.1 ± 0.0
[4]; 12 h after single gavage
  Terminal body weight: 12.8 ± 0.7 g
[4]; 24 h
  Liver weight: 0.973 ± 0.088 g
  Relative liver weight: 0.068 ± 0.003
  Body weight gain: 1.1 ± 0.0
[4]; 24 h after single gavage
  Terminal body weight: 14.2 ± 0.9 g
[4]; 72 h
  Liver weight: 1.068 ± 0.060 g
  Relative liver weight: 0.071 ± 0.003
  Body weight gain: 1.2 ± 0.1
[4]; 72 h after single gavage
  Terminal body weight: 15.1 ± 0.7 g
[4]; 168 h
  Liver weight: 1.263 ± 0.080 g
  Relative liver weight: 0.072 ± 0.003
  Body weight gain: 1.3 ± 0.0
[4]; 168 h after single gavage
  Terminal body weight: 17.5 ± 0.4 g
[5]
  Decrease of hepatic level after 7 days: ~ 1.4 fold
[6]
  Hepatic lipid accumulation, Oil Red O staining: significant lipid accumulation
  Necrosis and immune (mixed) cell infiltration in liver: more dramatic vacuolization, and necrosis, as well as mixed cell infiltration
[6]; time course
  Hepatic inflammation: moderate multifocal inflammation; also recorded: instances of multifocal inflammation
[6]; Fig. 2 at 168 h
  Hepatocellular vacuolization, time course study: more severe; also recorded: slight to moderate vacuolization
Hepatic gene expression [7]; 30 μg/kg TCDD, Table 3 and Fig. 5C
  Regulation of PCB153-responsive (CAR/PXR) genes by TCDD: reciprocally modest; also recorded: minimal differential expression
Hepatic gene expression [7]; hepatic mRNA, time course, 30 μg/kg TCDD (Fig. 6A) or 300 mg/kg PCB153 (Fig. 6B)
  Cyp1a2 induction: ~ 30 fold
Hepatic gene expression [7]; hepatic mRNA, time course, 300 mg/kg PCB153 or 30 μg/kg TCDD (Fig. 6A-B)
  Elovl5 fold change: 2.2 fold
Hepatic gene expression [8]
  TCDD fold change, Abcc3: 1.7 fold
  TCDD fold change, Acsl3: −2.3 fold
  TCDD fold change, Agpat4: no change
  TCDD fold change, Akr1b7: no change
  TCDD fold change, Akr1c20: −1.7 fold
  TCDD fold change, Aox1: 2.2 fold
  TCDD fold change, Cdca2: no change
  TCDD fold change, Cds2: no change
  TCDD fold change, Ces2: 2.5 fold
  TCDD fold change, Cyp2b9: no change
  TCDD fold change, Cyp2b10: 2.3 fold
  TCDD fold change, Cyp2b23: no change
  TCDD fold change, Cyp2c54: no change
  TCDD fold change, Cyp2c55: 1.8 fold
  TCDD fold change, Cyp3a25: no change
  TCDD fold change, Dhfr: no change
  TCDD fold change, Elovl6: −4.3 fold
  TCDD fold change, Fasn: −4.3 fold
  TCDD fold change, Fmo5: no change
  TCDD fold change, Gadd45a: −3.6 fold
  TCDD fold change, Gadd45b: 3.2 fold
  TCDD fold change, Gpx2: no change
  TCDD fold change, Gsta2: 5.9 fold
  TCDD fold change, Gstm4: 2.4 fold
  TCDD fold change, Gstt3: 1.5 fold
  TCDD fold change, Hmgcr: −2.6 fold
  TCDD fold change, Hsd17b2: 2.2 fold
  TCDD fold change, Insig2: −1.7 fold
  TCDD fold change, Mad1l1: no change
  TCDD fold change, Myc: 3.0 fold
  TCDD fold change, Nol3: no change
  TCDD fold change, Pla2g12a: 3.1 fold
  TCDD fold change, Slc1a4: no change
  TCDD fold change, Slc23a1: −1.7 fold
  TCDD fold change, Smpd3: −2.6 fold
  TCDD fold change, Srebf1: −2.3 fold
  TCDD fold change, Srebf2: −1.7 fold
  TCDD fold change, Ugdh: 2.7 fold
  TCDD fold change, Zwint: no change
Hepatic gene expression [9]
  TCDD time course Boverhof et al., Abcc3 fold change: 1.5 fold
  TCDD time course Boverhof et al., Agpat4 fold change: no change
  TCDD time course Boverhof et al., Akr1b7 fold change: no change
  TCDD time course Boverhof et al., Cds2 fold change: no change
  TCDD time course Boverhof et al., Ces2 fold change: 1.6 fold
  TCDD time course Boverhof et al., Cyp2b10 fold change: no change
  TCDD time course Boverhof et al., Dhfr fold change: −1.5 fold
  TCDD time course Boverhof et al., Elovl6 fold change: −1.8 fold
  TCDD time course Boverhof et al., Fasn fold change: −1.9 fold
  TCDD time course Boverhof et al., Fmo5 fold change: no change
  TCDD time course Boverhof et al., Gadd45b fold change: 4.6 fold
  TCDD time course Boverhof et al., Gpx2 fold change: no change
  TCDD time course Boverhof et al., Gsta2 fold change: 7.2 fold
  TCDD time course Boverhof et al., Gstt3 fold change: no change
  TCDD time course Boverhof et al., Insig2 fold change: no change
  TCDD time course Boverhof et al., Myc fold change: 3.7 fold
  TCDD time course Boverhof et al., Nol3 fold change: no change
  TCDD time course Boverhof et al., Slc1a4 fold change: no change
  TCDD time course Boverhof et al., Srebf1 fold change: −2.1 fold
  TCDD time course Boverhof et al., Srebf2 fold change: 1.5 fold
  TCDD time course Boverhof et al., Ugdh fold change: 3.1 fold
[3]
  Hepatocyte cell size and number: not affected
